Test results: patent US4068074A, “Cephalosporin derivatives having at the 3-position of the cephem ring a heterocyclic thiomethyl group with a carboxy or sulfo group and at the 7-position of the cephem ring an α-heterocylic acylaminophenyl-acetamide group” (priority 1974, dated 1978)
In brackets after ≈: the same amount, converted by molar mass. Where two headings read alike, the source gives them in different places.

Columns and labels:
[1] = tested on: Bacillus megatherium 10778; assay: MIC against bacteria (Table I), strain (13); assay type: cell-based; details: (13) Bacillus megatherium 10778; read-out: MIC
Excerpt: (§1) Now, for illustrating the excellent pharmacological effects of the compounds of this invention, the values of MIC (γ/ml.) of the compounds against various bacteria are shown in Table 1, in which the compounds of this invention used are shown by example numbers.

Staphylococcus Onuma = assay: MIC against bacteria (Table I), strain (18); assay type: cell-based; details: (18) Staphylococcus Onuma; read-out: MIC
Excerpt: as §1
(18) Staphylococcus Onuma

Salmonella enteritidis = assay: MIC against bacteria (Table I), strain (10); assay type: cell-based; details: Salmonella enterica
Excerpt: as §1
(10) Salmonella enteritidis

[2] = tested on: Escherichia coli kauffmann 0-1; assay: MIC against bacteria (Table I), strain (7); assay type: cell-based; details: Escherichia coli
Excerpt: as §1
(7) Escherichia coli kauffmann 0-1

[3] = tested on: Pseudomonas aeruginosa 99 (Gentamycin resistant); assay: MIC against bacteria (Table I), strain (5); assay type: cell-based; details: (5) Pseudomonas aeruginosa 99 (Gentamycin resistant); read-out: MIC
Excerpt: as §1
(5) Pseudomonas aeruginosa 99 (Gentamycin resistant)

Salmonella typhi H901 W = assay: MIC against bacteria (Table I), strain (9); assay type: cell-based; details: Salmonella enterica, TYPHI
Excerpt: as §1
(9) Salmonella typhi H901 W

[4] = tested on: Staphylococcus Shimanishi; assay: MIC against bacteria (Table I), strain (17); assay type: cell-based
Excerpt: as §1
(17) Staphylococcus Shimanishi

[5] = tested on: Pseudomonas aeruginosa ATCC 8689; assay: MIC against bacteria (Table I), strain (4); assay type: cell-based; details: ATCC8689; (4) Pseudomonas aeruginosa ATCC 8689; read-out: MIC
Excerpt: as §1
(4) Pseudomonas aeruginosa ATCC 8689

[6] = tested on: Micrococcus flavus ATCC 10240; assay: MIC against bacteria (Table I), strain (15); assay type: cell-based; details: ATCC10240
Excerpt: as §1
(15) Micrococcus flavus ATCC 10240

Proteus vulgaris OXK US = assay: MIC against bacteria (Table I), strain (1); assay type: cell-based; details: (1) Proteus vulgaris OXK US; read-out: MIC
Excerpt: as §1
(1) Proteus vulgaris OXK US

[7] = tested on: Proteus mirabilis IXM OM-19; assay: MIC against bacteria (Table I), strain (3); assay type: cell-based; details: IXMOM19; (3) Proteus mirabilis IXM OM-19; read-out: MIC
Excerpt: as §1
(3) Proteus mirabilis IXM OM-19

[8] = tested on: Psuedomonas ovalis IMA 1002; assay: MIC against bacteria (Table I), strain (6); assay type: cell-based; details: (6) Psuedomonas ovalis IMA 1002; read-out: MIC
Excerpt: as §1
(6) Psuedomonas ovalis IMA 1002

[9] = Residual antibacterial activity after incubation with 10% liver homogenate (Table 4); assay type: in vitro ADME, male Sprague-Dowley rat; details: 10% rat liver homogenate
Description: (§2) The relation between the reaction period of time and the antibacterial activity (residual activity, %) when these compounds are incubated with the plasma and the liver homogenate of a male Sprague-Dowley rat is shown in Table 4. The residual antibacterial activity was measured by a thin-layer cup method according to Bacillus subtilis ATCC 6633.
B*Residual activity (%) when incubated with 10% liver homogenate.

[10] = tested on: Bacillus subtilis ATCC 6633; assay: MIC against bacteria (Table I), strain (14); assay type: cell-based; details: ATCC6633; (14) Bacillus subtilis ATCC 6633; read-out: MIC
Excerpt: as §1
(14) Bacillus subtilis ATCC 6633

[11] = tested on: Shigella flexneri 2a 1675; assay: MIC against bacteria (Table I), strain (11); assay type: cell-based; details: 2A1675; (11) Shigella flexneri 2a 1675; read-out: MIC
Excerpt: as §1

Proteus vulgaris 0X 19US = assay: MIC against bacteria (Table I), strain (2); assay type: cell-based; details: 0X19US; (2) Proteus vulgaris 0X 19US; read-out: MIC
Excerpt: as §1
(2) Proteus vulgaris 0X 19US

Shigella sonnei II 37148 = assay: MIC against bacteria (Table I), strain (12); assay type: cell-based; details: II37148; (12) Shigella sonnei II 37148; read-out: MIC
Excerpt: as §1

[12] = tested on: Klebsiella pneumoniae ATCC 10031; assay: MIC against bacteria (Table I), strain (8); assay type: cell-based; details: ATCC10031; (8) Klebsiella pneumoniae ATCC 10031; read-out: MIC
Excerpt: as §1
(8) Klebsiella pneumoniae ATCC 10031

[13] = tested on: Staphylococcus aureus 209P; assay: MIC against bacteria (Table I), strain (16); assay type: cell-based; details: Staphylococcus aureus, 209P
Excerpt: as §1
(16) Staphylococcus aureus 209P

[14] = Solubility of salts in water (Table 2); assay type: physicochemical; details: disodium salt, water, showing pH 7.4; read-out: Solubility: disodium salt dissolved in water in an amount of
Excerpt: An advantage of the compounds of this invention is that the salts, for example, sodium salts of these compounds are readily soluble in water at pH of living bodies, which makes them suitable for injections at high concentration. The solubility of these compounds are illustrated in Table 2 together with a control example.

[15] = Residual antibacterial activity after incubation with 90% plasma (Table 4); assay type: in vitro ADME, male Sprague-Dowley rat; details: 90% rat plasma
Description: as §2
A*Residual activity (%) when incubated with 90% plasma.

Question: Which MIC [1] does the source give for `O=C(O)CCc1nnc(SCC2=C(C(=O)O)N3C(=O)[C@@H](NC(=O)[C@H](NC(=O)c4cnccc4O)c4ccccc4)[C@H]3SC2)s1` [Example 6, 7-[D-α-(4-hydroxynicotinoylamido)-α-phenylacetamido]-3-(5-carboxyethyl-1,3,4-thiadiazol-2-yl)thiomethyl-Δ^3-cephem-4-carboxylic acid] here?
Answer: 0.39 µg/mL (≈ 0.594 µM)

Question: And the MIC (Staphylococcus Onuma)?
Answer: 12.5 µg/mL (≈ 19 µM)

Question: And the MIC (Salmonella enteritidis; ENTERITIDIS)?
Answer: 0.39 µg/mL (≈ 0.594 µM)

Question: And the MIC [2]?
Answer: 3.13 µg/mL (≈ 4.77 µM)

Question: And the MIC [3]?
Answer: 6.25 µg/mL (≈ 9.52 µM)

Question: And the MIC (Salmonella typhi H901 W)?
Answer: 1.56 µg/mL (≈ 2.38 µM)

Question: What about the MIC ([4]; (17) Staphylococcus Shimanishi, read-out: MIC) of the same molecule?
Answer: 6.25 µg/mL (≈ 9.52 µM)

Question: What about the MIC [5] of the same molecule?
Answer: 12.5 µg/mL (≈ 19 µM)

Question: What about the MIC ([6]; (15) Micrococcus flavus ATCC 10240, read-out: MIC) of the same molecule?
Answer: 6.25 µg/mL (≈ 9.52 µM)

Question: And the MIC (Proteus vulgaris OXK US)?
Answer: < 0.09 µg/mL

Question: And the MIC [7]?
Answer: 0.39 µg/mL (≈ 0.594 µM)

Question: What about the MIC [8] of the same molecule?
Answer: 6.25 µg/mL (≈ 9.52 µM)

Question: And the remaining at 0.25 h ([9]; 10% liver homogenate, 15 minute, read-out: Residual activity)?
Answer: 95.7%

Question: And the remaining at 0.5 h ([9]; 10% liver homogenate, 30 minute, read-out: Residual activity)?
Answer: 89.1%

Question: What about the remaining at 1.5 h ([9]; 10% liver homogenate, 90 minute, read-out: Residual activity) of the same molecule?
Answer: 91.3%

Question: What about the Residual activity ([9]; 0 minute) of the same molecule?
Answer: 100%

Question: What about the MIC [10] of the same molecule?
Answer: 0.39 µg/mL (≈ 0.594 µM)

Question: What about the MIC [11] of the same molecule?
Answer: 0.78 µg/mL (≈ 1.19 µM)

Question: And the MIC (Proteus vulgaris 0X 19US)?
Answer: < 0.09 µg/mL

Question: What about the MIC (Shigella sonnei II 37148) of the same molecule?
Answer: 3.13 µg/mL (≈ 4.77 µM)

Question: What about the MIC [12] of the same molecule?
Answer: 6.25 µg/mL (≈ 9.52 µM)

Question: What about the MIC [13] of the same molecule?
Answer: 1.56 µg/mL (≈ 2.38 µM)

Question: And the solubility [14]?
Answer: > 200 mg/mL

Question: And the remaining at 0.25 h ([15]; 90% plasma, 15 minute)?
Answer: 92%

Question: And the remaining at 0.5 h ([15]; 90% plasma, 30 minute)?
Answer: 102%

Question: What about the remaining at 1.5 h ([15]; 90% plasma, 90 minute) of the same molecule?
Answer: 102%

Question: What about the Residual activity ([15]; 0 minute) of the same molecule?
Answer: 100%

Question: With `COc1ccncc1C(=O)N[C@@H](C(=O)N[C@@H]1C(=O)N2C(C(=O)O)=C(CSc3nnc(SCC(=O)O)s3)CS[C@H]12)c1ccccc1` [Example 26, 7-[D-α-(4-methoxynicotinoylamido)-α-phenylacetamido]-3-(5-carboxymethylthio-1,3,4-thiadiazole-2-yl)thiomethyl-Δ^3-cephem-4-carboxylic acid] as the molecule, how does the MIC [1] read?
Answer: 0.78 µg/mL (≈ 1.13 µM)

Question: And the MIC (Staphylococcus Onuma)?
Answer: 12.5 µg/mL (≈ 18.1 µM)

Question: And the MIC (Salmonella enteritidis; (10) Salmonella enteritidis, read-out: MIC)?
Answer: 1.56 µg/mL (≈ 2.26 µM)

Question: And the MIC [2]?
Answer: 6.25 µg/mL (≈ 9.07 µM)

Question: What about the MIC [3] of the same molecule?
Answer: 12.5 µg/mL (≈ 18.1 µM)

Question: And the MIC (Salmonella typhi H901 W)?
Answer: 6.25 µg/mL (≈ 9.07 µM)

Question: What about the MIC ([4]; Staphylococcus) of the same molecule?
Answer: 6.25 µg/mL (≈ 9.07 µM)

Question: What about the MIC [5] of the same molecule?
Answer: 12.5 µg/mL (≈ 18.1 µM)

Question: What about the MIC ([6]; Micrococcus flavus) of the same molecule?
Answer: 6.25 µg/mL (≈ 9.07 µM)

Question: And the MIC (Proteus vulgaris OXK US)?
Answer: 0.19 µg/mL (≈ 0.276 µM)

Question: What about the MIC [7] of the same molecule?
Answer: 0.78 µg/mL (≈ 1.13 µM)

Question: And the MIC [8]?
Answer: 25 µg/mL (≈ 36.3 µM)

Question: And the MIC [10]?
Answer: 0.78 µg/mL (≈ 1.13 µM)

Question: What about the MIC [11] of the same molecule?
Answer: 3.13 µg/mL (≈ 4.54 µM)

Question: What about the MIC (Proteus vulgaris 0X 19US) of the same molecule?
Answer: 0.39 µg/mL (≈ 0.566 µM)

Question: What about the MIC (Shigella sonnei II 37148) of the same molecule?
Answer: 6.25 µg/mL (≈ 9.07 µM)

Question: And the MIC [12]?
Answer: 12.5 µg/mL (≈ 18.1 µM)

Question: What about the MIC [13] of the same molecule?
Answer: 1.56 µg/mL (≈ 2.26 µM)

Question: What about the solubility [14] of the same molecule?
Answer: > 200 mg/mL
